Reference: PubChem BioAssay (NCI)
Values joined by “and” are separate entries in the source; they are usually repeats but may differ in a detail not shown here. Equal entries are not always repeated.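 Briefly, cells in 96-well plates were exposed to five compound concentrations for 48 h, and endpoints were estimated by linear interpolation. GI50 = concentration required for 50% inhibition of growth. TGI marks complete inhibition of growth.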

Columns and labels:
Experiment in all cases: NCI tumour cell line growth inhibition, 48 h
DLD-1 colon = tested on: DLD-1 colon
DMS 114 small cell lung = tested on: DMS 114 small cell lung
DMS 273 small cell lung = tested on: DMS 273 small cell lung
HOP-18 NSCLC = tested on: HOP-18 NSCLC
KM20L2 colon = tested on: KM20L2 colon
RXF-631 renal = tested on: RXF-631 renal
SNB-78 CNS = tested on: SNB-78 CNS
XF 498 CNS = tested on: XF 498 CNS
MDA-N = tested on: MDA-N
P388 leukemia = tested on: P388 leukemia
P388/ADR leukemia = tested on: P388/ADR leukemia
SN12K1 renal = tested on: SN12K1 renal

| Compound | TGI (DLD-1 colon) [µM] | TGI (DMS 114 small cell lung) [µM] | TGI (DMS 273 small cell lung) [µM] | TGI (HOP-18 NSCLC) [µM] | TGI (KM20L2 colon) [µM] | TGI (RXF-631 renal) [µM] | TGI (SNB-78 CNS) [µM] | TGI (XF 498 CNS) [µM] | TGI (MDA-N) | further results |
| --- | --- | --- | --- | --- | --- | --- | --- | --- | --- | --- |
| CC(C)=Cc1cc(C(=O)Nc2ccc(Cl)c(Cl)c2)nc(N)n1 | > 100 | > 100 | > 100 | > 100 | > 100 | > 100 | > 100 | > 100 | – | – |
| O=C(/C=C\c1ccc(Cl)c(Cl)c1)c1ccc(Cl)cc1Cl | 26.8 | – | 34.8 | – | 28 | > 100 | – | – | – | GI50 (DLD-1 colon): 12.6 µM |
| CC(C)OP(=O)(OC(C)C)C(=NCCN=C(NNc1ccc([N+](=O)[O-])cc1)P(=O)(OC(C)C)OC(C)C)NNc1ccc([N+](=O)[O-])cc1 | > 100 | > 100 | > 100 | – | > 100 | – | – | 9.04 | – | – |
| COc1cc2c(c(OC)c1OC)-c1ccc(OC)c(=O)cc1C(NC(=O)c1ccc(N=[N+]=[N-])cc1)CC2 (stereo unspecified) | > 100 | 0.0656 | – | > 100 | 0.0351 | – | > 100 | – | – | – |
| CC(=O)OC1COC(n2ccc3cc(Br)c([N+](=O)[O-])cc32)C(OC(C)=O)C1OC(C)=O (stereo unspecified) | > 100 | 94.1 | > 100 | – | > 100 | 58.8 | 84.6 | 30.5 | – | – |
| Cn1c2ccccc2c2cc(-c3ccccc3)c3c(c21)C(=O)c1ccccc1C3=O | 31 | 33.6 | 44.9 | – | – | > 100 | 54.3 | 39.7 | – | – |
| COC(=O)C1=C(C)NC(C)=C(C(=O)OCCCN2CCC(c3ccccc3)(c3ccccc3)CC2)C1c1cccc([N+](=O)[O-])c1 (stereo unspecified) | – | – | – | – | – | – | – | – | 3.89 µM | – |
| CC(=O)/C(=C\c1cccc([N+](=O)[O-])c1)C(=O)Nc1ccccc1C | > 100 | > 100 | – | > 100 | > 100 | – | > 100 | > 100 | – | – |
| CC(=O)OC1=CC(n2cc(F)c(=O)[nH]c2=O)OC(C)C1=O (stereo unspecified) | > 100 | > 100 | > 100 | > 100 | – | – | > 100 | > 100 | > 100 µM | – |
| CC(C)C(C)/C=C\C(C)C1CCC2C3=CC=C4CC(O)CCC4(C)C3CCC21C (stereo unspecified) | – | – | – | – | – | – | – | – | > 70.5 µM | – |
| Clc1ccc(C(c2ccc(Cl)cc2)c2ccccn2)cc1 | 83.5 | > 100 | – | 46.6 | 29.8 | – | > 100 | 34.8 | – | – |
| Nc1ncnc2c1nnn2C1OC(CO)C(O)C1O (stereo unspecified) | 25.5 | 17.1 | 13.6 | 11.8 | > 74.3 | – | > 100 | 47.3 | – | TGI (P388 leukemia): 16.1 µM; TGI (P388/ADR leukemia): 26.7 µM; TGI (SN12K1 renal): 9.58 µM |
| Cc1ccc(S(=O)(=O)Nc2ccccc2C(=O)c2ccc(C)c(C)c2)cc1 | – | – | – | – | – | – | – | – | > 100 µM | – |
| Brc1ccccc1C1SCc2nc3ccccc3n21 (stereo unspecified) | 26.7 | 94.4 | – | – | – | – | 83.7 | – | – | – |
| COC1=CC(=O)C(C2CC(=O)c3c(O)cc(O)cc3O2)=CC1=O (stereo unspecified) | – | – | – | – | – | – | – | – | 29.7 µM | – |
| CCc1cc(Cc2cc(CC)c(NC(=O)C(=O)Cc3ccccn3)c(CC)c2Cl)c(Cl)c(CC)c1NC(=O)C(=O)Cc1ccccn1 | > 100 | > 100 | > 100 | > 100 | > 100 | – | > 100 | > 100 | – | – |
| COc1cc(OC)cc(-c2cc(=O)c3c(OC)c(OC)c(OC)c(OC)c3o2)c1 | – | – | – | – | – | – | – | – | > 100 µM | – |
| C#CC1(O)CCC2C3CCc4cc(Oc5nc(F)nc(-c6c7ccccc7c7sc8ccccc8n67)n5)ccc4C3CC[C@@]21C (stereo partly specified) | > 100 | – | > 100 | – | > 100 | – | – | > 100 | – | – |
| NS(=O)(=O)c1cc(Br)c(N=Nc2ccc(O)c3ncccc23)c(Br)c1 | – | – | – | – | – | – | – | – | > 100 µM | – |
| COC(OC)C(C)CC(=O)N(C)C (stereo unspecified) | > 100 | > 100 | > 100 | – | > 100 | – | > 100 | > 100 | – | – |
| CCOC(=O)CC(=O)ON(C)C(C)=O | > 100 | > 100 | – | – | > 100 | – | > 100 | > 100 | – | – |
| O=c1cc(-c2ccccc2)oc2cc(OCCCOc3ccc4c(=O)cc(-c5ccccc5)oc4c3)ccc12 | > 100 | > 100 | > 100 | > 100 | > 100 | – | > 100 | > 100 | – | – |

| Compound | TGI (DLD-1 colon) [µM] | TGI (DMS 114 small cell lung) [µM] | TGI (DMS 273 small cell lung) [µM] | TGI (HOP-18 NSCLC) [µM] | TGI (KM20L2 colon) [µM] | TGI (RXF-631 renal) [µM] | TGI (SNB-78 CNS) [µM] | TGI (XF 498 CNS) [µM] | TGI (MDA-N) | further results |
| --- | --- | --- | --- | --- | --- | --- | --- | --- | --- | --- |
| COc1ccc(S(=O)(=O)NNS(C)(=O)=O)cc1 | > 100 | > 100 | > 100 | – | > 100 | > 100 | – | > 100 | – | – |
| OCc1ccc(-c2ccc(-c3ccc(CO)s3)o2)s1 | > 73.4 | > 100 | > 49.5 | 32.6 | 1.19 | – | – | 0.356 | 39.6 µM | – |
| Cc1cc(O)c(/C=N/C(=S)NCc2ccccc2)c(=O)o1 | – | – | – | – | – | – | – | – | > 100 µM | – |
| NC1(C(=O)OCc2ccccc2)CCCC1 | – | – | – | – | – | – | – | – | 49.6 µM | – |
| CN(C)c1nc(=Nc2ccc(N=c3nc(N(C)C)ss3)cc2)ss1 | 30.2 | 38.1 | > 64 | > 100 | > 100 | 38.8 | 38.5 | – | – | – |
| COc1c(Cl)c(=O)oc2ccc(Cl)cc12 | – | – | – | – | – | – | – | – | > 100 µM | – |
| CC(C)(C)OC(=O)N[C@H]1CC2(C=C(Cl)C(=O)C(Cl)=C2)OC1=O | 13.4 | – | 32.9 | 30.4 | 39.4 | 30.5 | 40 | 34.5 | 35.5 µM | – |
| CCOC(=O)NC(=O)c1cn(CCCO)c(=O)[nH]c1=O | > 100 | > 100 | > 100 | > 100 | > 100 | > 100 | > 100 | > 100 | – | – |
| CSc1nc(NC2OCC(OC(C)=O)C(OC(C)=O)C2OC(C)=O)c(N=CC=Nc2c(NC3OCC(OC(C)=O)C(OC(C)=O)C3OC(C)=O)nc(SC)[nH]c2=O)c(=O)[nH]1 (stereo unspecified) | > 100 | > 100 | > 100 | > 100 | > 100 | > 100 | > 100 | – | > 100 µM | – |
| CCOC(=O)c1cc2nc3ccccc3c(=O)n2c2ccccc12 | – | – | – | – | – | – | – | – | > 10 µM | – |
| C/C(=N\NC(=S)NC(CCC(=O)O)C(=O)O)c1ccccn1 (stereo unspecified) | > 100 | > 100 | – | > 100 | > 100 | > 100 | > 100 | > 100 | – | – |
| c1ccc(COc2cccc3ccc[n+](Cc4ccccc4)c23)cc1 | > 100 | 14.6 | 17.7 | 15.4 | 93.8 | > 100 | – | 31.4 | – | – |
| CCN1c2ccccc2C(C(SC)S(=O)(=O)c2ccc(C)cc2)c2c1[nH]c(=O)n(C)c2=O (stereo unspecified) | > 100 | > 100 | > 100 | > 100 | – | – | > 100 | > 100 | – | – |
| CN(C)CCSC1=Nc2ccc(Cl)cc2C(c2ccccc2Cl)=NC1 | – | – | – | – | – | – | – | – | 25.8 µM and 89.1 µM | GI50 (MDA-N): 11.8 µM and 25.1 µM |
| COc1cc(C2c3cc4c(cc3OC(C)(O)C2C)OCO4)cc(OC)c1OC (stereo unspecified) | – | – | – | – | – | – | – | – | 0.258 µM | – |
| CCCCCCCCC/C=C1\CCC(CN2CCOCC2)C1=O (stereo unspecified) | 3.9 | 7.42 | 5.08 | 10.7 | 20.5 | 18.2 | 15.3 | – | 12.7 µM | – |
| Cn1cnc([N+](=O)[O-])c1Sc1nc2ccccc2[nH]1 | 22.2 | 21.7 | 3.43 | > 100 | 61.5 | – | 88 | 18.5 | – | – |
| [Cl-].[La+3].[O-]/N=C(\c1ccccc1)c1ccccn1.[O-]/N=C(\c1ccccc1)c1ccccn1.[O-]/N=C(\c1ccccc1)c1ccccn1 | > 100 | > 100 | > 100 | > 100 | > 100 | – | > 100 | – | – | GI50 (DLD-1 colon): 43.5 µM; GI50 (DMS 114 small cell lung): 30.8 µM; GI50 (DMS 273 small cell lung): 31.3 µM; GI50 (HOP-18 NSCLC): 31.3 µM; GI50 (KM20L2 colon): 46.2 µM; GI50 (SNB-78 CNS): > 90.8 µM |
| CN(C)c1ccc(/C=C(\NC(=O)c2ccccc2)c2nc3ncncc3[nH]2)cc1 | > 100 | > 100 | – | – | > 100 | > 100 | > 100 | > 100 | – | – |
| CC1=CC(O)(c2ccc(-c3ccccc3Cl)cc2)OC1=O (stereo unspecified) | > 100 | > 100 | > 100 | > 100 | > 100 | > 100 | – | – | – | – |
| CCOC(=O)C(=C=C=C(c1ccccc1)c1ccccc1)C(=O)OCC | 40.7 | 40.1 | 45.5 | – | 45.2 | 77 | 37 | 30.3 | – | – |
| N=Nc1c(OC(=O)Nc2cccc(Cl)c2)[nH]c2ccccc12 | – | – | – | – | – | – | – | – | 10.1 µM | – |
